# Patent US20230272083A1, “COMBINATION OF AN ANTI-PD-L1 ANTIBODY AND A DNA-PK INHIBITOR FOR THE TREATMENT OF CANCER” (Merck Patent GmbH, priority 2017, published 2023)
# How the values were obtained:
# [1] = test system: murine colon tumor model MC38; experiment: M3814 and avelumab in syngeneic MC38 tumor model (Example 1); assay type: in vivo, C57BL6/N mice; conditions: M3814 150 mg/kg orally once daily, avelumab 400 μg/mouse intravenously on days 3, 6 and 9; for median time the tumors needed to double in size as compared to their initial volume at day 0: Kaplan-Meyer evaluation
# From the text: This model allows the use of immunocompetent mice, a necessary requirement to study the T-cell mediated antitumor effect of Avelumab. The experimental set up included the induction of MC38 tumors in C57BL6/N mice by injection of 1×10^6 tumor cells into the right flank of the animals. Tumor growth was followed over time by measuring length and width using a caliper. When tumors were established to an average size of 50-100 mm^3, mice were subdivided in 4 treatment groups with 10 animals each, and treatment started. This day was defined as day 0. Group 1 received vehicle treatment. Group 2 received M3814 orally once daily at 150 mg/kg in a volume of 10 ml/kg. Group 3 received avelumab intravenously once daily at 400 μg/mouse in a volume of 5 ml/kg on days 3, 6 and 9. Group 4 received M3814 orally once daily at 150 mg/kg in a volume of 10 ml/kg and avelumab intravenously once daily at 400 μg/mouse in a volume of 5 ml/kg on days 3, 6 and 9.
# [2] = 10 mg/kg dose; cited from earlier work
# [3] = test system: p53 wild-type cancer cells (A549, A375, H460); experiment: Cell cycle arrest and senescence after ionizing radiation plus M3814; assay type: cell-based
# [4] = test system: human PBMC-derived immune cells; experiment: Effect of culture media from M3814-induced senescent cells on immune cells (live imaging); assay type: cell-based
# Procedure: (§1) These substantial changes in gene expression were built gradually and correlated with the development of senescence phenotype. Several proteins from the induced subset were measured in the cell media (Meso Scale Discovery) and confirmed that they are secreted by senescent cells in the absence of M3814.
# DNA-PK = DNA-PK (Homo sapiens, UniProt P78527); experiment: Crystallographic and enzyme kinetics studies; assay type: biochemical
# From the text: DNA-PK, together with five additional protein factors (Ku70, Ku80, XRCC4, Ligase IV and Artemis) plays a critical role in the repair of DSB via NHEJ. Kinase activity of DNA-PK is essential for proper and timely DNA repair and the long-term survival of cancer cells.
# A549 and A375 cells = experiment: Nanostring PanCancer Immune panel mRNA analysis of IR/M3814 induced senescent cells; assay type: cell-based
# Procedure: as §1
Compound,median time the tumors needed to double in size as compared to their initial volume at day 0 [1] [days],T/C values calculated at day 13 [1] [%],receptor occupancy [2],tolerability [2],"reversibility of senescence phenotype following compound removal ([3]; A549 cells, live cell imaging and BrdU labeling)","time to typical senescence phenotype (large/flat morphology, β-Gal staining) ([3]; IR 2-5Gy plus sustained M3814)","ATM dependent signaling, including CHK2 and p53-dependent cell cycle arrest ([3]; in the presence of DDSBs)","cell cycle arrest in isogenic p53-null cells ([3]; isogenic p53-null A549 cells, IR plus M3814)","cell cycle effect ([3]; proliferating p53 wild-type A549, A375, H460, single dose of ionizing radiation (2-5Gy) and sustained exposure to M3814)",immunomodulatory effect of culture media from M3814-induced senescent cells [4],inhibition of DNA-PK (DNA-PK),upregulation of eighteen immune response genes compared to controls (A549 and A375 cells)
avelumab: fully human monoclonal antibody of the immunoglobulin (Ig) G1 isotype; selectively binds to PD-L1,13,60,excellent receptor occupancy,well tolerated,–,–,–,–,–,–,–,–
"COc1ccc([C@@H](O)c2cc(-c3ncnc4cc(N5CCOCC5)ccc34)c(F)cc2Cl)nn1 [Compound M3814, (S)-[2-chloro-4-fluoro-5-(7-morpholin-4-yl-quinazolin-4-yl)-phenyl]-(6-methoxypyridazin-3-yl)-methanol]",10,47,–,–,not reversible,4-7 days,enhanced activation of the ATM dependent signaling,lost the ability to fully arrest their cell cycle,complete cell cycle block,increased immunomodulatory effect,potent and selective ATP-competitive inhibitor,3-150 fold
